Measurements published in the NIST ThermoML archive (doi:10.1016/j.fluid.2006.02.002).
± gives the expanded uncertainty stated by the source.

details: Liquid; ebulliometry

Normal boiling temperature [°C]	Compound
204.92 ± 0.2	CNC(C)=O [N-methylacetamide]
203.86 ± 0.2	CN1CCCC1=O [N-methylpyrrolidone]
117.70 ± 0.2	CC(=O)O [acetic acid]
99.81 ± 0.2	O [water]
